Data as given in US8343999B2, “Thiazolyl compounds useful as kinase inhibitors” (Bristol-Myers Squibb Company, priority 2007, dated 2013).

Columns and labels:
IGF1-receptor = IGF1-receptor (Homo sapiens, UniProt P08069); assay: IGF1-Receptor Tyrosine Kinase Assay (Caliper LabChip, fluoresceinated IGF1R substrate peptide); type: biochemical; conditions: In vitro kinase data; ATP 25 μM, IGF1-Receptor 14 nM; read-out: IGF-1R IC50
Method: D. IGF1-Receptor Tyrosine Kinase Assay
The assays were performed in U-bottom 384-well plates. The final assay volume was 30 μl prepared from 15 μl additions of enzyme and substrates (fluoresceinated IGF1R substrate peptide and ATP) and test compounds in assay buffer (100 mM HEPES pH 7.4, 10 mM MnCl2, 0.015% Brij35 and 4 mM DTT). The reaction was initiated by the combination of IGF1-receptor with substrates and test compounds. The reaction was incubated at room temperature for 60 min. and terminated by adding 30 μl of 35 mM EDTA to each sample. The reaction mixture was analyzed on the Caliper LabChip 3000 by electrophoretic separation of the fluorescent substrate and phosphorylated product. Inhibition data were calculated by comparison to no enzyme control reactions for 100% inhibition and vehicle-only reactions for 0% inhibition. The final concentration of reagents in the assays is ATP, 25 μM; FL-peptide, 1.5 μM; IGF1-Receptor, 14 nM; and DMSO, 1.6%. Dose response curves were generated to determine the concentration required inhibiting 50% of kinase activity (IC50). Compounds were dissolved at 10 mM in dimethylsulfoxide (DMSO) and evaluated at eleven concentrations, each in duplicate. IC50 values were derived by non-linear regression analysis.
(§1) Compounds described herein were tested in the above assay.

IGF1R-Sal tumors = assay: IGF-1R Sal Tumor Model (tumor xenograft in nude mice); type: in vivo; conditions: qd, orally for 4 consecutive days, nude mice bearing IGF1R-Sal tumors
Method: P. IGF-1R Sal Tumor Model
A salivary gland adenocarcinoma that developed spontaneously in a transgenic mouse (MCI-19) was excised and cut into fragments of about 20 mg. Tumor fragments were implanted s.c. into the ventral thoracic region of a group of six female, athymic BALB/c nu/nu mice (Harley Sprague-Dawley, Indianapolis, Ind.), using a 13-gauge trocar. Once established, the salivary gland-derived tumor line was designated IGF1R-Sal and was propagated as a tumor xenograft in nude mice. Tumors were passaged every 2 weeks, at which time the tumor reached f500 to 1,000 mm3 in size. For treatment studies, nude micebearing IGF1R-Sal tumors of about 100 mm3 in size were sorted into groups of five for treatment with vehicle (80% polyethylene glycol 400 in water) alone or the test article. Compounds were administered either on a bid schedule (oral doses 8 hours apart) or on a once a day schedule orally (qd) for 4 consecutive days. Tumors were measured at the start and end of treatment. Activity was measured as % tumor growth inhibition (% TGI). The % TGI was determined using the following formula (Ct−Tt)/(Ct−Co) where Ct is defined as the median tumor size of the control group at the end of treatment, Co is defined as the median tumor size of the control group at the start of treatment, and Tt is defined as the median tumor size of the treated group at the end of treatment.
as §1

Chain of IGF1-receptor (P08069 31-1367): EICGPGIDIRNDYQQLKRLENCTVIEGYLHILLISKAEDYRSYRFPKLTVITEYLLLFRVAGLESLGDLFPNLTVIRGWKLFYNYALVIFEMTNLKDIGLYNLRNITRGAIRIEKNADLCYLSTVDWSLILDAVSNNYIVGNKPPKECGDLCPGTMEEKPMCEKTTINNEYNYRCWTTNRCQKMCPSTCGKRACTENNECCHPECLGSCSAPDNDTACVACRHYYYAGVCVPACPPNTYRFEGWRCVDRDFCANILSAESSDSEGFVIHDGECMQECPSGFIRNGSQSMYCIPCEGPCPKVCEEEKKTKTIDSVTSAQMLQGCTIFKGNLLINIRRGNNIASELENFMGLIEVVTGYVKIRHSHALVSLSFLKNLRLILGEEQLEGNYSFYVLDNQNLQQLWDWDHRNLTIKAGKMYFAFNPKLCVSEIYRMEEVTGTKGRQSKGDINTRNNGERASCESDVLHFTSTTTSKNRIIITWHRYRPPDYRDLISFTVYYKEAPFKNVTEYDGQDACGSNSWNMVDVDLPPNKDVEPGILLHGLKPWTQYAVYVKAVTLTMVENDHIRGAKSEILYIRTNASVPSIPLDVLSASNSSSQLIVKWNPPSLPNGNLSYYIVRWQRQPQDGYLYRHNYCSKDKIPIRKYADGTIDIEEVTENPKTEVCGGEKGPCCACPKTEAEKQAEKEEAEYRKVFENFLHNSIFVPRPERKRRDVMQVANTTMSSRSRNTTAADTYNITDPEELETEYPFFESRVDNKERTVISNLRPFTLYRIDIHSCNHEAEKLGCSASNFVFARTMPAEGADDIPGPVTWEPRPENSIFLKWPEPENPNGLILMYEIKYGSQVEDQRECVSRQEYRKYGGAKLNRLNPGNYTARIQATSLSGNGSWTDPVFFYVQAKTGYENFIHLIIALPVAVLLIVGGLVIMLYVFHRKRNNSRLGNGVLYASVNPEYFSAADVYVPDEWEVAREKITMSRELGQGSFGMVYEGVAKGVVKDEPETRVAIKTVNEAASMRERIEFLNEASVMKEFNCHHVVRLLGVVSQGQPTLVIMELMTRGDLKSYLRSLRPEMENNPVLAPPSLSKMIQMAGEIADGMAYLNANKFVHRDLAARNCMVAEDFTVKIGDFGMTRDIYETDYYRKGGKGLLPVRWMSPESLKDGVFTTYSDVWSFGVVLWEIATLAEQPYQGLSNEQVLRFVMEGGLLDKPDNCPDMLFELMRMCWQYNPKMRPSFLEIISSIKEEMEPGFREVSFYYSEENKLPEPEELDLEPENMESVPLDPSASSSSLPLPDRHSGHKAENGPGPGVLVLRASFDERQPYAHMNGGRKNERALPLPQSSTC

| Compound | IC50 (IGF1-receptor) | other results |
| --- | --- | --- |
| Cc1ccnc(Nc2ncc(Sc3ccnc(C(=O)NCC4(c5ccccc5)CCN(CCO)CC4)c3F)s2)c1 [Example 5, 3-Fluoro-N-((1-(2-hydroxyethyl)-4-phenylpiperidin-4-yl)methyl)-4-(2-(4-methylpyridin-2-ylamino)thiazol-5-ylthio)picolinamide] | 3 nM | % TGI (IGF1R-Sal tumors; 12.5 mg/kg): 102% |
| Cc1ccnc(Nc2ncc(Sc3ccnc(C(=O)NCC4(c5ccccc5)CCN(S(C)(=O)=O)CC4)c3F)s2)c1 [Example 24, 3-Fluoro-4-(2-(4-methylpyridin-2-ylamino)thiazol-5-ylthio)-N-((1-(methylsulfonyl)-4-phenylpiperidin-4-yl)methyl)picolinamide] | 1 nM |  |
| Cc1ccnc(Nc2ncc(Sc3ccnc(C(=O)NCC4(c5ccccn5)CCN(CCO)CC4)c3F)s2)c1 [Example 58, 3-fluoro-N-((1-(2-hydroxyethyl)-4-(pyridin-2-yl)piperidin-4-yl)methyl)-4-(2-(4-methylpyridin-2-ylamino)thiazol-5-ylthio)picolinamide] | 3 nM |  |
| Cc1ccnc(Nc2ncc(Sc3ccnc(C(=O)NCC4(c5ccccc5)CCN(CCC#N)CC4)c3F)s2)c1 [Example 33, N-((1-(2-cyanoethyl)-4-phenylpiperidin-4-yl)methyl)-3-fluoro-4-(2-(4-methylpyridin-2-ylamino)thiazol-5-ylthio)picolinamide] | 320 nM |  |
| Cc1ccnc(Nc2ncc(Sc3ccnc(C(=O)NCC4(c5ccccc5)CCN(C)CC4)c3F)s2)c1 [Example 2, 3-Fluoro-N-((1-methyl-4-phenylpiperidin-4-yl)methyl)-4-(2-(4-methylpyridin-2-ylamino)thiazol-5-ylthio)picolinamide] | 9 nM | % TGI (IGF1R-Sal tumors; 12.5 mg/kg): 107% |
| Cc1ccnc(Nc2ncc(Sc3ccnc(C(=O)NCC4(c5ccc(F)cc5F)CCN(C[C@H](O)CO)CC4)c3F)s2)c1 [Example 77, (S)—N-((4-(2,4-difluorophenyl)-1-(2,3-dihydroxypropyl)piperidin-4-yl)methyl)-3-fluoro-4-(2-(4-methylpyridin-2-ylamino)thiazol-5-ylthio)picolinamide] | 9 nM | % TGI (IGF1R-Sal tumors; 25 mg/kg): 114% |
| Cc1ccnc(Nc2ncc(Sc3ccnc(C(=O)NCC4(c5ccccc5)CCNCC4)c3F)s2)c1 [Example 11, 3-Fluoro-4-(2-(4-methylpyridin-2-ylamino)thiazol-5-ylthio)-N-((4-phenylpiperidin-4-yl)methyl)picolinamide] | 4 nM | % TGI (IGF1R-Sal tumors; 12.5 mg/kg): 19% |
| Cc1ccnc(Nc2ncc(Sc3ccnc(C(=O)NCC4(c5ccccc5)CCN(C(=O)c5cc(S(N)(=O)=O)c(F)cc5Cl)CC4)c3F)s2)c1 [Example 93, N-((1-(2-chloro-4-fluoro-5-sulfamoylbenzoyl)-4-phenylpiperidin-4-yl)methyl)-3-fluoro-4-(2-(4-methylpyridin-2-ylamino)thiazol-5-ylthio)picolinamide] | 3260 nM |  |
| Cc1ccnc(Nc2ncc(Sc3ccnc(C(=O)NCC4(c5ccccc5)CCN(C(=O)c5ccc(Cl)c(S(N)(=O)=O)c5)CC4)c3F)s2)c1 [Example 92, N-((1-(4-chloro-3-sulfamoylbenzoyl)-4-phenylpiperidin-4-yl)methyl)-3-fluoro-4-(2-(4-methylpyridin-2-ylamino)thiazol-5-ylthio)picolinamide] | 2000 nM |  |

Further lines, with some results ahead:

| IC50 (IGF1-receptor) | Compound | other results |
| --- | --- | --- |
| 4520 nM | Cc1ccnc(Nc2ncc(Sc3ccnc(C(=O)NCC4(c5ccccc5)CCN(C(=O)C(C)(C)N)CC4)c3F)s2)c1 [Example 95, N-((1-(2-amino-2-methylpropanoyl)-4-phenylpiperidin-4-yl)methyl)-3-fluoro-4-(2-(4-methylpyridin-2-ylamino)thiazol-5-ylthio)picolinamide] |  |
| 25000 nM | Cc1ccnc(Nc2ncc(Sc3ccnc(C(=O)NCC4(C5CCCCC5)CCN(C(=O)OC(C)(C)C)CC4)c3F)s2)c1 [Example 44, tert-butyl 4-cyclohexyl-4-((3-fluoro-4-(2-(4-methylpyridin-2-ylamino)thiazol-5-ylthio)picolinamido)methyl)piperidine-1-carboxylate] |  |
| 349 nM | COCCOC(=O)N1CCC(CNC(=O)c2nccc(Sc3cnc(Nc4cc(C)ccn4)s3)c2F)(c2ccccn2)CC1 [Example 88, 2-Methoxyethyl 4-((3-fluoro-4-(2-(4-methylpyridin-2-ylamino)thiazol-5-ylthio)picolinamido)methyl)-4-(pyridin-2-yl)piperidine-1-carboxylate] |  |
| 358 nM | Cc1ccnc(Nc2ncc(Sc3ccnc(C(=O)NCC4(c5ccccc5)CCN(C(=O)N(C)C)CC4)c3F)s2)c1 [Example 89, N-((1-(dimethylcarbamoyl)-4-phenylpiperidin-4-yl)methyl)-3-fluoro-4-(2-(4-methylpyridin-2-ylamino)thiazol-5-ylthio)picolinamide] |  |
| 5690 nM | COCCOC(=O)N1CCC(CNC(=O)c2nccc(Sc3cnc(Nc4cc(C)ccn4)s3)c2F)(c2ccc(Cl)c(Cl)c2)CC1 [Example 86, 2-methoxyethyl 4-(3,4-dichlorophenyl)-4-((3-fluoro-4-(2-(4-methylpyridin-2-ylamino)thiazol-5-ylthio)picolinamido)methyl)piperidine-1-carboxylate] |  |
| 311 nM | Cc1ccnc(Nc2ncc(Sc3ccnc(C(=O)NCC4(c5ccccc5)CCN(C(=O)N5CCOCC5)CC4)c3F)s2)c1 [Example 90, 3-Fluoro-4-(2-(4-methylpyridin-2-ylamino)thiazol-5-ylthio)-N-((1-(morpholine-4-carbonyl)-4-phenylpiperidin-4-yl)methyl)picolinamide] |  |
| 9 nM | Cc1ccnc(Nc2ncc(Sc3ccnc(C(=O)NCC4(C5CCCCC5)CCN(C[C@H](O)CO)CC4)c3F)s2)c1 [Example 74, (S)—N-((4-cyclohexyl-1-(2,3-dihydroxypropyl)piperidin-4-yl)methyl)-3-fluoro-4-(2-(4-methylpyridin-2-ylamino)thiazol-5-ylthio)picolinamide] | % TGI (IGF1R-Sal tumors; 50 mg/kg): 100% |
| 3 nM | CC(=O)N1CCC(CNC(=O)c2nccc(Sc3cnc(Nc4cc(C)ccn4)s3)c2F)(c2ccccc2)CC1 [Example 22, N-((1-acetyl-4-phenylpiperidin-4-yl)methyl)-3-fluoro-4-(2-(4-methylpyridin-2-ylamino)thiazol-5-ylthio)picolinamide] |  |
| 1 nM | Cc1ccnc(Nc2ncc(Sc3ccnc(C(=O)NCC4(c5ccccc5)CCN(C(=O)c5cccnc5)CC4)c3F)s2)c1 [Example 18, 3-Fluoro-4-(2-(4-methylpyridin-2-ylamino)thiazol-5-ylthio)-N-((1-nicotinoyl-4-phenylpiperidin-4-yl)methyl)picolinamide] |  |
| 423 nM | COC(=O)N1CCC(CNC(=O)c2nccc(Sc3cnc(Nc4cc(C)ccn4)s3)c2F)(c2ccccn2)CC1 [Example 87, Methyl 4-((3-fluoro-4-(2-(4-methylpyridin-2-ylamino)thiazol-5-ylthio)picolinamido)methyl)-4-(pyridin-2-yl)piperidine-1-carboxylate] |  |
| 6 nM | Cc1ccnc(Nc2ncc(Sc3ccnc(C(=O)NCC4(c5ccccc5)CCN(C(=O)CN(C)C)CC4)c3F)s2)c1 [Example 12, N-((1-(2-(dimethylamino)acetyl)-4-phenylpiperidin-4-yl)methyl)-3-fluoro-4-(2-(4-methylpyridin-2-ylamino)thiazol-5-ylthio)picolinamide] | % TGI (IGF1R-Sal tumors; 12.5 mg/kg): 92% |
